PMC5218480 (PLoS ONE, 2017)

Tested on: MV-4-11 cells
Test: Gene expression microarray analysis (Affymetrix PrimeView) and GSEA
Format: cell-based, human
Parameters: RFU PODN (11730768_x_at) / Fold change /veh PODN (11730768_x_at) / RFU LINC00158 (11744669_a_at) / Fold change /veh LINC00158 (11744669_a_at) / RFU DUSP10 (11751237_a_at) / Fold change /veh DUSP10 (11751237_a_at) / RFU ID3 (11757404_x_at) / Fold change /veh ID3 (11757404_x_at) / RFU PLEKHG5 (11737974_s_at) / Fold change /veh PLEKHG5 (11737974_s_at) / RFU LRRC4B (11730491_at) / Fold change /veh LRRC4B (11730491_at) / RFU GIMAP4 (11747438_a_at) / Fold change /veh GIMAP4 (11747438_a_at) / RFU KRT8 (11758183_x_at) / Fold change /veh KRT8 (11758183_x_at) / RFU CNN1 (11734310_a_at) / Fold change /veh CNN1 (11734310_a_at) / RFU VPS37D (11726825_at) / Fold change /veh VPS37D (11726825_at) / RFU C10orf10 (11716522_x_at) / Fold change /veh C10orf10 (11716522_x_at) / RFU KIR2DL2 /// KIR2DL4 /// KIR2DL5A /// KIR2DL5B /// KIR2DS1 /// KIR2DS2 /// KIR2DS3 /// KIR2DS4 /// KIR3DL3 /// KIR3DL3 /// KIR3DS1 (11738374_at) / Fold change /veh KIR2DL2 /// KIR2DL4 /// KIR2DL5A /// KIR2DL5B /// KIR2DS1 /// KIR2DS2 /// KIR2DS3 /// KIR2DS4 /// KIR3DL3 /// KIR3DL3 /// KIR3DS1 (11738374_at) / RFU C1QL1 (11718748_at) / Fold change /veh C1QL1 (11718748_at) / RFU TMPRSS4 (11747572_a_at) / Fold change /veh TMPRSS4 (11747572_a_at) / RFU HAMP (11756126_x_at) / Fold change /veh HAMP (11756126_x_at) / RFU RNFT2 (11725882_a_at) / Fold change /veh RNFT2 (11725882_a_at) / RFU NR4A2 (11747474_a_at) / Fold change /veh NR4A2 (11747474_a_at) / RFU ABCC12 (11746883_a_at) / Fold change /veh ABCC12 (11746883_a_at) / RFU TMEM136 (11760407_x_at) / Fold change /veh TMEM136 (11760407_x_at) / RFU CLDN22 /// WWC2 (11732394_at) / Fold change /veh CLDN22 /// WWC2 (11732394_at) / RFU HLA-DPB1 (11760878_x_at) / Fold change /veh HLA-DPB1 (11760878_x_at) / RFU SPINT1 (11716480_a_at) / Fold change /veh SPINT1 (11716480_a_at) / RFU GAP43 (11754022_s_at) / Fold change /veh GAP43 (11754022_s_at) / RFU A4GNT (11735810_at) / Fold change /veh A4GNT (11735810_at) / RFU PRB3 (11715151_x_at) / Fold change /veh PRB3 (11715151_x_at) / RFU TUBB4B (11761932_at) / Fold change /veh TUBB4B (11761932_at) / RFU CAPN14 (11732068_a_at) / Fold change /veh CAPN14 (11732068_a_at) / RFU TMCC2 (11721928_a_at) / Fold change /veh TMCC2 (11721928_a_at) / RFU IRGQ (11745062_a_at) / Fold change /veh IRGQ (11745062_a_at) / RFU FAM174B (11720279_a_at) / Fold change /veh FAM174B (11720279_a_at) / RFU TMPRSS4 (11748680_a_at) / Fold change /veh TMPRSS4 (11748680_a_at) / RFU FAM212B (11763350_a_at) / Fold change /veh FAM212B (11763350_a_at) / RFU PLEKHG5 (11743358_a_at) / Fold change /veh PLEKHG5 (11743358_a_at) / RFU ZSCAN30 (11745921_a_at) / Fold change /veh ZSCAN30 (11745921_a_at) / RFU CMKLR1 (11741424_a_at) / Fold change /veh CMKLR1 (11741424_a_at) / RFU LOC101060620 /// MAPK8IP1 (11723275_at) / Fold change /veh LOC101060620 /// MAPK8IP1 (11723275_at) / RFU SPTSSB (11747773_x_at) / Fold change /veh SPTSSB (11747773_x_at) / RFU PRSS12 (11739890_at) / Fold change /veh PRSS12 (11739890_at) / RFU BIN1 (11741810_x_at) / Fold change /veh BIN1 (11741810_x_at) / RFU WNT11 (11732464_a_at) / Fold change /veh WNT11 (11732464_a_at) / RFU C10orf10 (11716521_a_at) / Fold change /veh C10orf10 (11716521_a_at) / RFU C5orf56 (11738089_at) / Fold change /veh C5orf56 (11738089_at) / RFU CYB561 (11721691_x_at) / Fold change /veh CYB561 (11721691_x_at) / RFU ANKRD19P (11752326_a_at) / Fold change /veh ANKRD19P (11752326_a_at) / RFU OR2T12 /// OR2T33 /// OR2T8 (11738714_s_at) / Fold change /veh OR2T12 /// OR2T33 /// OR2T8 (11738714_s_at) / RFU VCAN (11748164_a_at) / Fold change /veh VCAN (11748164_a_at) / RFU JSRP1 (11732532_at) / Fold change /veh JSRP1 (11732532_at) / RFU KRTAP10-11 (11738290_x_at) / Fold change /veh KRTAP10-11 (11738290_x_at) / RFU MYO3A (11730013_a_at) / Fold change /veh MYO3A (11730013_a_at) / RFU EBF3 (11725865_a_at) / Fold change /veh EBF3 (11725865_a_at) / RFU CAMK2N1 (11719241_x_at) / Fold change /veh CAMK2N1 (11719241_x_at) / RFU C5orf56 (11738088_a_at) / Fold change /veh C5orf56 (11738088_a_at) / RFU OLFML3 (11715873_a_at) / Fold change /veh OLFML3 (11715873_a_at) / RFU LOC100653217 /// NTM (11731650_a_at) / Fold change /veh LOC100653217 /// NTM (11731650_a_at) / RFU MAPK11 (11762145_a_at) / Fold change /veh MAPK11 (11762145_a_at) / RFU FIZ1 (11724087_x_at) / Fold change /veh FIZ1 (11724087_x_at) / RFU OASL (11726364_x_at) / Fold change /veh OASL (11726364_x_at) / RFU SOX15 (11748057_x_at) / Fold change /veh SOX15 (11748057_x_at) / RFU CD79A (11719716_a_at) / Fold change /veh CD79A (11719716_a_at) / RFU HIST1H1D (11736915_at) / Fold change /veh HIST1H1D (11736915_at) / RFU CASKIN2 (11723855_a_at) / Fold change /veh CASKIN2 (11723855_a_at) / RFU LOC730098 (11760151_x_at) / Fold change /veh LOC730098 (11760151_x_at) / RFU OR4N2 (11742367_at) / Fold change /veh OR4N2 (11742367_at) / RFU PRRT2 (11749266_a_at) / Fold change /veh PRRT2 (11749266_a_at) / RFU SNX32 (11753110_a_at) / Fold change /veh SNX32 (11753110_a_at) / RFU CDHR5 (11726645_a_at) / Fold change /veh CDHR5 (11726645_a_at) / RFU RCAN1 (11760418_a_at) / Fold change /veh RCAN1 (11760418_a_at) / RFU FAM167A (11723789_a_at) / Fold change /veh FAM167A (11723789_a_at) / RFU FAM26E (11764081_at) / Fold change /veh FAM26E (11764081_at) / RFU ISYNA1 (11749810_s_at) / Fold change /veh ISYNA1 (11749810_s_at) / RFU ACY1 (11761880_at) / Fold change /veh ACY1 (11761880_at) / RFU 11764098_at / Fold change /veh 11764098_at / RFU SAMD14 (11745864_x_at) / Fold change /veh SAMD14 (11745864_x_at) / RFU NPB (11741838_a_at) / Fold change /veh NPB (11741838_a_at) / RFU TMPRSS6 (11731388_a_at) / Fold change /veh TMPRSS6 (11731388_a_at) / RFU KRTAP10-2 (11738614_at) / Fold change /veh KRTAP10-2 (11738614_at) / RFU ARHGAP8 /// PRR5-ARHGAP8 (11727945_x_at) / Fold change /veh ARHGAP8 /// PRR5-ARHGAP8 (11727945_x_at) / RFU KRTAP5-7 /// NADSYN1 (11734609_at) / Fold change /veh KRTAP5-7 /// NADSYN1 (11734609_at) / RFU RASL12 (11751679_a_at) / Fold change /veh RASL12 (11751679_a_at) / RFU CDKN2B (11736163_a_at) / Fold change /veh CDKN2B (11736163_a_at) / RFU PRF1 (11729649_at) / Fold change /veh PRF1 (11729649_at) / RFU, ZNF638 /// ZNF638-IT1 / Fold change vs veh, ZNF638 /// ZNF638-IT1 / RFU, PANK3 / Fold change vs veh, PANK3 / RFU, SH3YL1 / Fold change vs veh, SH3YL1 / RFU, ZEB2 / Fold change vs veh, ZEB2 / RFU, NRIP1 / Fold change vs veh, NRIP1 / RFU, PTTG1IP / Fold change vs veh, PTTG1IP / RFU, CAPN2 / Fold change vs veh, CAPN2 / RFU, MED14 / Fold change vs veh, MED14 / RFU, SNORA58 / Fold change vs veh, SNORA58 / RFU, C1orf63 / Fold change vs veh, C1orf63 / RFU, LRRFIP1 / Fold change vs veh, LRRFIP1 / RFU, NDUFAF7 / Fold change vs veh, NDUFAF7 / RFU, SLC12A2 / Fold change vs veh, SLC12A2 / RFU, IBTK / Fold change vs veh, IBTK / RFU, ESF1 / Fold change vs veh, ESF1 / Fold change vs veh, TMEM50B / RFU, TAOK1 / Fold change vs veh, TAOK1 / RFU, ACBD3 / Fold change vs veh, ACBD3 / RFU, TMA16 / Fold change vs veh, TMA16 / RFU, RWDD3 / Fold change vs veh, RWDD3 / RFU, BCAT1 / Fold change vs veh, BCAT1 / RFU, EDEM3 / Fold change vs veh, EDEM3 / RFU, TMEM33 / Fold change vs veh, TMEM33 / RFU, WDR75 / Fold change vs veh, WDR75 / RFU, AHCTF1 / Fold change vs veh, AHCTF1 / RFU, TFRC / Fold change vs veh, TFRC / RFU, ZDHHC17 / Fold change vs veh, ZDHHC17 / RFU, NOM1 / Fold change vs veh, NOM1 / RFU, ARL8B / Fold change vs veh, ARL8B / RFU, ZBTB11 / Fold change vs veh, ZBTB11 / RFU, TAMM41 / Fold change vs veh, TAMM41 / RFU, KIAA1704 /// LOC100996395 / Fold change vs veh, KIAA1704 /// LOC100996395 / RFU, ING1 / Fold change vs veh, ING1 / RFU, TRMT61B / Fold change vs veh, TRMT61B / RFU, FUBP3 / Fold change vs veh, FUBP3 / RFU, TP53 / Fold change vs veh, TP53 / RFU, TNKS2 / Fold change vs veh, TNKS2 / RFU, ZFP14 / Fold change vs veh, ZFP14 / RFU, ACTR2 / Fold change vs veh, ACTR2 / RFU, PPP3R1 / Fold change vs veh, PPP3R1 / RFU, PIK3R1 / Fold change vs veh, PIK3R1 / RFU, HNRNPA1 / Fold change vs veh, HNRNPA1 / RFU, RNF170 / Fold change vs veh, RNF170 / RFU, ZNF28 / Fold change vs veh, ZNF28 / RFU, RNGTT / Fold change vs veh, RNGTT / RFU, OGT / Fold change vs veh, OGT / RFU, BRD1 / Fold change vs veh, BRD1 / RFU, MARS / Fold change vs veh, MARS / RFU, ZNF655 / Fold change vs veh, ZNF655 / RFU, FAHD1 / Fold change vs veh, FAHD1 / RFU, BDP1 / Fold change vs veh, BDP1 / RFU, LRRCC1 / Fold change vs veh, LRRCC1 / RFU, ARID1A / Fold change vs veh, ARID1A / RFU, ZNF146 / Fold change vs veh, ZNF146 / RFU, ZNF330 / Fold change vs veh, ZNF330 / RFU, GPN3 / Fold change vs veh, GPN3 / RFU, C9orf123 / Fold change vs veh, C9orf123 / RFU, N4BP2L2 / Fold change vs veh, N4BP2L2 / RFU, ARFIP1 / Fold change vs veh, ARFIP1 / RFU, FAM179B / Fold change vs veh, FAM179B / RFU, BCL10 / Fold change vs veh, BCL10 / RFU, UHRF1BP1L / Fold change vs veh, UHRF1BP1L / RFU, BET1 / Fold change vs veh, BET1 / RFU, CNOT2 / Fold change vs veh, CNOT2 / RFU, ZNF268 / Fold change vs veh, ZNF268 / Fold change vs veh, ZNF507 / RFU, DGCR2 / Fold change vs veh, DGCR2 / RFU, WDSUB1 / Fold change vs veh, WDSUB1 / Fold change vs veh, HSP90B1 /// MIR3652 / RFU, ADSS / Fold change vs veh, ADSS / RFU, GK / Fold change vs veh, GK / RFU, ZNF148 / Fold change vs veh, ZNF148 / RFU, TAF9 / Fold change vs veh, TAF9 / RFU, SLC1A5 / Fold change vs veh, SLC1A5 / RFU, SLMO2 / Fold change vs veh, SLMO2 / RFU, ABCC4 / Fold change vs veh, ABCC4 / RFU, LOC101060439 /// RAP1B / Fold change vs veh, LOC101060439 /// RAP1B / RFU, RFX7 / Fold change vs veh, RFX7 / RFU, GTPBP10 / Fold change vs veh, GTPBP10 / RFU, CNEP1R1 / Fold change vs veh, CNEP1R1 / RFU, BIVM-ERCC5 /// ERCC5 / Fold change vs veh, BIVM-ERCC5 /// ERCC5 / RFU, ILF3 / Fold change vs veh, ILF3 / RFU 11762660_at / Fold change /veh 11762660_at / RFU VCAN (11757783_s_at) / Fold change /veh VCAN (11757783_s_at) / RFU DDX43 (11728927_at) / Fold change /veh DDX43 (11728927_at) / RFU KRT8 (11758188_x_at) / Fold change /veh KRT8 (11758188_x_at) / RFU NKD1 (11759106_at) / Fold change /veh NKD1 (11759106_at) / RFU SRD5A1 (11742802_a_at) / Fold change /veh SRD5A1 (11742802_a_at) / RFU TPSAB1 /// TPSB2 (11721975_s_at) / Fold change /veh TPSAB1 /// TPSB2 (11721975_s_at) / RFU GSTM3 (11746129_a_at) / Fold change /veh GSTM3 (11746129_a_at) / RFU IL23R (11737362_x_at) / Fold change /veh IL23R (11737362_x_at) / RFU TMEM51 (11727254_a_at) / Fold change /veh TMEM51 (11727254_a_at) / RFU PIWIL2 (11732686_x_at) / Fold change /veh PIWIL2 (11732686_x_at) / RFU ORM1 (11744905_x_at) / Fold change /veh ORM1 (11744905_x_at) / RFU CCDC152 (11743942_at) / Fold change /veh CCDC152 (11743942_at) / RFU ECM1 (11717891_a_at) / Fold change /veh ECM1 (11717891_a_at) / RFU IL23R (11748794_a_at) / Fold change /veh IL23R (11748794_a_at) / RFU TNFAIP8L3 (11732012_x_at) / Fold change /veh TNFAIP8L3 (11732012_x_at) / RFU MBOAT4 (11741988_at) / Fold change /veh MBOAT4 (11741988_at) / RFU 11764193_at / Fold change /veh 11764193_at / RFU TMEM53 (11763286_at) / Fold change /veh TMEM53 (11763286_at) / RFU MAGEB2 (11727129_at) / Fold change /veh MAGEB2 (11727129_at) / RFU TMEM200A (11744735_a_at) / Fold change /veh TMEM200A (11744735_a_at) / RFU CCDC152 (11751479_a_at) / Fold change /veh CCDC152 (11751479_a_at) / RFU FAM211A (11726209_a_at) / Fold change /veh FAM211A (11726209_a_at) / RFU RGS16 (11746705_a_at) / Fold change /veh RGS16 (11746705_a_at) / RFU VCAN (11755009_s_at) / Fold change /veh VCAN (11755009_s_at) / RFU RHOB (11743442_s_at) / Fold change /veh RHOB (11743442_s_at) / RFU RGS16 (11720943_a_at) / Fold change /veh RGS16 (11720943_a_at) / RFU RGS16 (11720944_at) / Fold change /veh RGS16 (11720944_at) / RFU, VPS4B / Fold change vs veh, VPS4B / RFU, CREB1 / Fold change vs veh, CREB1 / RFU, DNAJC13 / Fold change vs veh, DNAJC13 / RFU, GNAQ / Fold change vs veh, GNAQ / RFU, CDK5R1 / Fold change vs veh, CDK5R1 / RFU, ZRANB3 / Fold change vs veh, ZRANB3 / RFU, CUL4A / Fold change vs veh, CUL4A / RFU, CCNY / Fold change vs veh, CCNY / RFU, UFL1 / Fold change vs veh, UFL1 / RFU, COG3 / Fold change vs veh, COG3 / RFU, DIAPH2 / Fold change vs veh, DIAPH2 / RFU, SKA2 / Fold change vs veh, SKA2 / RFU, AFF3 / Fold change vs veh, AFF3 / RFU, LMF1 / Fold change vs veh, LMF1 / RFU, IPO11 / Fold change vs veh, IPO11 / RFU, DFFB / Fold change vs veh, DFFB / RFU, FOXP1 / Fold change vs veh, FOXP1 / RFU, CARD8 / Fold change vs veh, CARD8 / RFU, STRN3 / Fold change vs veh, STRN3 / RFU, ADK / Fold change vs veh, ADK / RFU, RASSF2 / Fold change vs veh, RASSF2 / RFU, WIPF1 / Fold change vs veh, WIPF1 / RFU, LARP1B / Fold change vs veh, LARP1B / RFU, RASA1 / Fold change vs veh, RASA1 / RFU, RB1 / Fold change vs veh, RB1 / RFU, PPFIA1 / Fold change vs veh, PPFIA1 / RFU, MAT2A / Fold change vs veh, MAT2A / RFU, CCT5 / Fold change vs veh, CCT5 / RFU, WDR92 / Fold change vs veh, WDR92 / RFU, CUX1 / Fold change vs veh, CUX1 / RFU, TTC7A / Fold change vs veh, TTC7A / RFU, TMEM135 / Fold change vs veh, TMEM135 / RFU, DEPTOR / Fold change vs veh, DEPTOR / RFU, CPM / Fold change vs veh, CPM / RFU, DNAJB6 / Fold change vs veh, DNAJB6 / RFU, CACNA2D3 / Fold change vs veh, CACNA2D3 / RFU, DTX4 / Fold change vs veh, DTX4 / RFU, TFCP2 / Fold change vs veh, TFCP2 / RFU, GMCL1 /// GMCL1P1 / Fold change vs veh, GMCL1 /// GMCL1P1 / RFU, AEBP2 / Fold change vs veh, AEBP2 / RFU, SNHG1 /// SNORD22 /// SNORD25 /// SNORD26 /// SNORD27 /// SNORD28 /// SNORD29 /// SNORD31 / Fold change vs veh, SNHG1 /// SNORD22 /// SNORD25 /// SNORD26 /// SNORD27 /// SNORD28 /// SNORD29 /// SNORD31 / Fold change (Aza/veh), C12orf56 (ProbeSet 11735607_a_at) / Fold change (ACY-1035/veh), C12orf56 (ProbeSet 11735607_a_at) / Fold change (Aza/veh), FGFR1OP (ProbeSet 11751329_s_at) / Fold change (ACY-1035/veh), FGFR1OP (ProbeSet 11751329_s_at) / Fold change (Aza/veh), VPS36 (ProbeSet 11739960_a_at) / Fold change (ACY-1035/veh), VPS36 (ProbeSet 11739960_a_at) / RFU SYPL1 (11715823_x_at) / Fold change /veh SYPL1 (11715823_x_at) / RFU IGFBP7 (11715501_s_at) / Fold change /veh IGFBP7 (11715501_s_at) / RFU REEP3 (11722064_at) / Fold change /veh REEP3 (11722064_at) / RFU IGLL1 (11728026_x_at) / Fold change /veh IGLL1 (11728026_x_at): dose or concentration left out as unconfirmed
Details: ProbeSet 11717523_x_at; LIST B

## Nc1ncn([C@@H]2O[C@H](CO)[C@@H](O)[C@H]2O)c(=O)n1 [azacitidine]
  Fold change vs veh, TMEM50B: 0.85
